Experimental data taken from the kinase profiling compilation of Christmann-Franck et al. (2016).

Tests used:
Assay in all cases: KINOMEscan competition binding
Conditions in all cases: compound 2.0 µM
STK36 (human) = STK36 (human) (UniProt Q9NRP7)
MKNK2 (human) = MKNK2 (human) (UniProt Q9HBH9)
[1] = system: RET (human), P07949 [V804L]
STK33 (human) = STK33 (human) (UniProt Q9BYT3)
MAP3K3 (human) = MAP3K3 (human) (UniProt Q99759)
[2] = system: FLT3 (human), P36888 [D835Y]
CAMK4 (human) = CAMK4 (human) (UniProt Q16566)
AURKB (human) = AURKB (human) (UniProt Q96GD4)
PAK1 (human) = PAK1 (human) (UniProt Q13153)
ADCK4 (human) = ADCK4 (human) (UniProt Q96D53)
[3] = system: KIT (human), P10721 [V559D]
KIT (human), P10721 [V559D], sequence (P10721 whole entry V559D, looked up): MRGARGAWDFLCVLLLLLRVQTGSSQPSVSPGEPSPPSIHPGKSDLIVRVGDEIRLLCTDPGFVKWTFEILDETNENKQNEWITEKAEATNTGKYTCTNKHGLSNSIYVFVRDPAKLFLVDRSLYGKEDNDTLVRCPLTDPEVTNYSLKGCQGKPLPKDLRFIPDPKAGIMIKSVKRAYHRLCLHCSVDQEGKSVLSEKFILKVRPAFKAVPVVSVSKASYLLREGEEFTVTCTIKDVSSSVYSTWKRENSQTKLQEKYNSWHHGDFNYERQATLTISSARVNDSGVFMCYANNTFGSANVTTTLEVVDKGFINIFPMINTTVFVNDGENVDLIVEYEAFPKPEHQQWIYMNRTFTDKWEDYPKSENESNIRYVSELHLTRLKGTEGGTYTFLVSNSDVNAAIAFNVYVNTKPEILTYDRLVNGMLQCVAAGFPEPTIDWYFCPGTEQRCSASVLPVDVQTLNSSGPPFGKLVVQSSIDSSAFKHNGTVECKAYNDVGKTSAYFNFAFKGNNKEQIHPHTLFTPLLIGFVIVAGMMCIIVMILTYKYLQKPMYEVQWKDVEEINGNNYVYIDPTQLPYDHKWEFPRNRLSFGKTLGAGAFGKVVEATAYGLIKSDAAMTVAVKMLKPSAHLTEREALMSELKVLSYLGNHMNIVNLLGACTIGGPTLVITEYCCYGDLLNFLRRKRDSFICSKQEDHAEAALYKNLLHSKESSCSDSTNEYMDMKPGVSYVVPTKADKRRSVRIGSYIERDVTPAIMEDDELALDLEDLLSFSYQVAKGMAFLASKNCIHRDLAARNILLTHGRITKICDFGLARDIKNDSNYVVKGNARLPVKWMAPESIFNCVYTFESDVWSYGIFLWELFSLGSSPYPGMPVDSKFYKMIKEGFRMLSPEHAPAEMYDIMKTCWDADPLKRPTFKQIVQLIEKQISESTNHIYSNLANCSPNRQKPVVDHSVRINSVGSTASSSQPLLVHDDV

MAP2K2 (human) = MAP2K2 (human) (UniProt P36507)
CSNK1E (human) = CSNK1E (human) (UniProt P49674)
CDK17 (human) = CDK17 (human) (UniProt Q00537)
SRPK2 (human) = SRPK2 (human) (UniProt P78362)
CDKL3 (human) = CDKL3 (human) (UniProt Q8IVW4)
FGR (human) = FGR (human) (UniProt P09769)
[4] = system: PIK3CA (human), P42336 [H1047L]
EPHA5 (human) = EPHA5 (human) (UniProt P54756)
STK32B (human) = STK32B (human) (UniProt Q9NY57)
STK32B (human), sequence (Q9NY57 whole entry, looked up): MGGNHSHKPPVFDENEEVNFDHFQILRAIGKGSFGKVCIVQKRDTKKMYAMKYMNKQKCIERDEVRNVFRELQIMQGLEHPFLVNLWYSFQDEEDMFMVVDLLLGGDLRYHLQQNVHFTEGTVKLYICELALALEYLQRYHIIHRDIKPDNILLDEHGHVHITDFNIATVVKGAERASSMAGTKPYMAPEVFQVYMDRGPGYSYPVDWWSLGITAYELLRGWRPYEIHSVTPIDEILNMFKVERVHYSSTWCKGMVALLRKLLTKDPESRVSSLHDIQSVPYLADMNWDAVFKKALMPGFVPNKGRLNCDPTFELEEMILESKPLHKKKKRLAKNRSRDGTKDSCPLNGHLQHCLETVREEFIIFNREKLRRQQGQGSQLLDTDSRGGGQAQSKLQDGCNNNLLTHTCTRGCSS

DAPK1 (human) = DAPK1 (human) (UniProt P53355)
DDR2 (human) = DDR2 (human) (UniProt Q16832)
PTK2B (human) = PTK2B (human) (UniProt Q14289)
SBK1 (human) = SBK1 (human) (UniProt Q52WX2)
SIK1 (human) = SIK1 (human) (UniProt P57059)
ROS1 (human) = ROS1 (human) (UniProt P08922)
MAP3K2 (human) = MAP3K2 (human) (UniProt Q9Y2U5)
CSNK1G2 (human) = CSNK1G2 (human) (UniProt P78368)
CSNK1G2 (human), sequence (P78368 whole entry, looked up): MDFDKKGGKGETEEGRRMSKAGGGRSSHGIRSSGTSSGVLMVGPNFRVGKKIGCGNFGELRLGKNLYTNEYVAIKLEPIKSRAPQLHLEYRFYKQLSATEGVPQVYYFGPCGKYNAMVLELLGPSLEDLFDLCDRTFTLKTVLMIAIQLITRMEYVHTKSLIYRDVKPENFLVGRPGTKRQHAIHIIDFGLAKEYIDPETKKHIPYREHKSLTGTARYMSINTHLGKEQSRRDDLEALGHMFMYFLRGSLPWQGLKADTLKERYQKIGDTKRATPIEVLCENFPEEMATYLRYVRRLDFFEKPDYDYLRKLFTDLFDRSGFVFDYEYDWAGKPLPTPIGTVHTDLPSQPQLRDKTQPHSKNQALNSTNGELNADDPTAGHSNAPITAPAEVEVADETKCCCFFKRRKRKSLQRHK

STK17B (human) = STK17B (human) (UniProt O94768)
RIOK2 (human) = RIOK2 (human) (UniProt Q9BVS4)
STK25 (human) = STK25 (human) (UniProt O00506)
HIPK1 (human) = HIPK1 (human) (UniProt Q86Z02)
EPHA4 (human) = EPHA4 (human) (UniProt P54764)
[5] = system: EGFR (human), P00533 [T790M]
CaMK1 (human) = CaMK1 (human) (UniProt Q14012)
EIF2AK2 (human) = EIF2AK2 (human) (UniProt P19525)
HCK (human) = HCK (human) (UniProt P08631)
MLTK (human) = MLTK (human) (UniProt Q9NYL2)
MLTK (human), sequence (Q9NYL2 whole entry, looked up): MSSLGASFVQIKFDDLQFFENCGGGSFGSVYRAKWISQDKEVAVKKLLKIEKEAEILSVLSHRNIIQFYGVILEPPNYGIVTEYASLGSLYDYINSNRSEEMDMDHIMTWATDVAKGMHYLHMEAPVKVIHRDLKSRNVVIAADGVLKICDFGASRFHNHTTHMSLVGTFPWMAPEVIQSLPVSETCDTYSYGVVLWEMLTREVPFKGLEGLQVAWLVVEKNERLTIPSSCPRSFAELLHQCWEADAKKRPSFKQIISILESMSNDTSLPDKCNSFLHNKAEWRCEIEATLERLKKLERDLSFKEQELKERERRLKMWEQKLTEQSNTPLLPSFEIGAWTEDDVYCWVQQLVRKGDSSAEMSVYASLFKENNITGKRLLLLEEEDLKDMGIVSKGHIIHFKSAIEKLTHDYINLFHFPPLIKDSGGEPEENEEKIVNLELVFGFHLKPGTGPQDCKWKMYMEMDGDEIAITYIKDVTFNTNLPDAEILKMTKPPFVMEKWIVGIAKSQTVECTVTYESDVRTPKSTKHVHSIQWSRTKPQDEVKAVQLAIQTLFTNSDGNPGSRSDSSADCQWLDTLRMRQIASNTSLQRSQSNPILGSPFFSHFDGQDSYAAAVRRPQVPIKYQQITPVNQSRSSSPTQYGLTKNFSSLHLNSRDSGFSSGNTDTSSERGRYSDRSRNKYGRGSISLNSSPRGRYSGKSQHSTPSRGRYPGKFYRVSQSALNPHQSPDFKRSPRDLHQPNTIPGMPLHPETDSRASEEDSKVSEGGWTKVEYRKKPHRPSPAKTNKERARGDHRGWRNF

MYLK (human) = MYLK (human) (UniProt Q15746)
RIPK1 (human) = RIPK1 (human) (UniProt Q13546)
RIPK1 (human), sequence (Q13546 whole entry, looked up): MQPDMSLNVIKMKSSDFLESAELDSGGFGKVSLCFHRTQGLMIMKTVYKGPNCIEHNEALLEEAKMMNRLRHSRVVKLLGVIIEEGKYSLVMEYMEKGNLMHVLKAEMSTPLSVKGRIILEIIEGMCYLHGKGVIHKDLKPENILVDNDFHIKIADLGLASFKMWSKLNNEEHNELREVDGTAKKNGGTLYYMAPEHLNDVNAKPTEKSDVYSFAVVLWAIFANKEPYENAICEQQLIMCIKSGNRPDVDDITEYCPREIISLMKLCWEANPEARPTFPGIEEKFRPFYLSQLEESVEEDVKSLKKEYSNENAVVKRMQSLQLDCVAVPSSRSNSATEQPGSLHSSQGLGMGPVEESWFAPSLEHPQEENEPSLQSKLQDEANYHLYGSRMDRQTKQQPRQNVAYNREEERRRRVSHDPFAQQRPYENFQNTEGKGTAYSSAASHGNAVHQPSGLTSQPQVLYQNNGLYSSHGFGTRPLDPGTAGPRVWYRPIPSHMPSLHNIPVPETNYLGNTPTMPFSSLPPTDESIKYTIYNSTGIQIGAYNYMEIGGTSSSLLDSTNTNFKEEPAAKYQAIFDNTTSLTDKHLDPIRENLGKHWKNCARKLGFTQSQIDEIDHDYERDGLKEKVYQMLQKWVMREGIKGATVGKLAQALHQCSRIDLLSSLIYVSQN

CAMK2D (human) = CAMK2D (human) (UniProt Q13557)
CLK3 (human) = CLK3 (human) (UniProt P49761)
GSK3A (human) = GSK3A (human) (UniProt P49840)
GSK3A (human), sequence (P49840 whole entry, looked up): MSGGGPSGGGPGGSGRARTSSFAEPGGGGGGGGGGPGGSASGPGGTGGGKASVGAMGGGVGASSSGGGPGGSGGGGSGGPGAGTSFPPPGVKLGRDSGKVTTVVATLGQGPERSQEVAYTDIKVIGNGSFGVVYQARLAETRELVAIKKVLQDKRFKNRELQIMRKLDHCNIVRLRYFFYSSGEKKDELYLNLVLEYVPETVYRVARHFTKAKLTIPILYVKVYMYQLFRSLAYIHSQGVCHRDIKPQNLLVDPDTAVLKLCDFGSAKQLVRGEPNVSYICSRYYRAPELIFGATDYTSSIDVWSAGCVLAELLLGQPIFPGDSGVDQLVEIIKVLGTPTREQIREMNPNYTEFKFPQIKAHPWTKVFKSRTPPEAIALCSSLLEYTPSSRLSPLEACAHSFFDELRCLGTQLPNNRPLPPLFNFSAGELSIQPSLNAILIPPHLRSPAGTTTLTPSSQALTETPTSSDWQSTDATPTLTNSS

STK33 (human), sequence (Q9BYT3 whole entry, looked up): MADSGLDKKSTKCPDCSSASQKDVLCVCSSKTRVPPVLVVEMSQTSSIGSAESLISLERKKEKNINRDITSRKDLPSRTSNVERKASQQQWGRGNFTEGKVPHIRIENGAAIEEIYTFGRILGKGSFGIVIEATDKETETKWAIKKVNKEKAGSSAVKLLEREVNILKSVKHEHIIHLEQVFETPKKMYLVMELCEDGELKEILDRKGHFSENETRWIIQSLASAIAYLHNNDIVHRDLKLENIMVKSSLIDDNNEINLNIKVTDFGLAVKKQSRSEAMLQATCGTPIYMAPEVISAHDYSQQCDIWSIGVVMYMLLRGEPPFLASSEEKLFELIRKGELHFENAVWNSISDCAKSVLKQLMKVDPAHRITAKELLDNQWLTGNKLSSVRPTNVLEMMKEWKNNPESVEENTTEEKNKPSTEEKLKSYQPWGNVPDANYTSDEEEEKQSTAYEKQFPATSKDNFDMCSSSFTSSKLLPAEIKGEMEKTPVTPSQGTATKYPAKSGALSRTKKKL
MKNK2 (human), sequence (Q9HBH9 whole entry, looked up): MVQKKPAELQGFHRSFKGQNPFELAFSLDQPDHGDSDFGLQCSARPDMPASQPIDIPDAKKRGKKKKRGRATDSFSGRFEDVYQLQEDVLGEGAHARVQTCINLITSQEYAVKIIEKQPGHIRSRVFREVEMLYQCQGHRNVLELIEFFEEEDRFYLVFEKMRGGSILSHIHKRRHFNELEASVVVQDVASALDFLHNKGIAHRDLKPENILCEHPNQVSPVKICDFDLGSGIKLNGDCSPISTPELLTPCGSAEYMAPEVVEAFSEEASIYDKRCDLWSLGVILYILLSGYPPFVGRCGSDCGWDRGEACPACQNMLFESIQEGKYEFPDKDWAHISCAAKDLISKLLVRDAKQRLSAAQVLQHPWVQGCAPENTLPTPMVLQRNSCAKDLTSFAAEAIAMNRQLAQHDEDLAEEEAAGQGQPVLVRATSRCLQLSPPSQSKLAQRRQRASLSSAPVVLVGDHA

Q: For `N#Cc1ccc2ncnc(NCCc3ccc4ccccc4c3)c2c1`, which kinase still bound, per cent of control (STK36 (human)) is on record?
A: 100%

Q: And the kinase still bound, per cent of control (MKNK2 (human))?
A: 98%

Q: What about the kinase still bound, per cent of control [1] of the same compound?
A: 92%

Q: What about the kinase still bound, per cent of control (STK33 (human)) of the same compound?
A: 96%

Q: What about the kinase still bound, per cent of control (MAP3K3 (human)) of the same compound?
A: 100%

Q: What about the kinase still bound, per cent of control [2] of the same compound?
A: 94%

Q: What about the kinase still bound, per cent of control (CAMK4 (human)) of the same compound?
A: 100%

Q: What about the kinase still bound, per cent of control (AURKB (human)) of the same compound?
A: 79%

Q: And the kinase still bound, per cent of control (PAK1 (human))?
A: 82%

Q: And the kinase still bound, per cent of control (ADCK4 (human))?
A: 100%

Q: What about the kinase still bound, per cent of control [3] of the same compound?
A: 95%

Q: And the kinase still bound, per cent of control (MAP2K2 (human))?
A: 80%

Q: What about the kinase still bound, per cent of control (CSNK1E (human)) of the same compound?
A: 100%

Q: And the kinase still bound, per cent of control (CDK17 (human))?
A: 90%

Q: What about the kinase still bound, per cent of control (SRPK2 (human)) of the same compound?
A: 100%

Q: What about the kinase still bound, per cent of control (CDKL3 (human)) of the same compound?
A: 100%

Q: What about the kinase still bound, per cent of control (FGR (human)) of the same compound?
A: 100%

Q: What about the kinase still bound, per cent of control [4] of the same compound?
A: 100%

Q: And the kinase still bound, per cent of control (EPHA5 (human))?
A: 100%

Q: And the kinase still bound, per cent of control (STK32B (human))?
A: 97%

Q: What about the kinase still bound, per cent of control (DAPK1 (human)) of the same compound?
A: 89%

Q: And the kinase still bound, per cent of control (DDR2 (human))?
A: 100%

Q: What about the kinase still bound, per cent of control (PTK2B (human)) of the same compound?
A: 85%

Q: What about the kinase still bound, per cent of control (SBK1 (human)) of the same compound?
A: 100%

Q: And the kinase still bound, per cent of control (SIK1 (human))?
A: 100%

Q: What about the kinase still bound, per cent of control (ROS1 (human)) of the same compound?
A: 95%

Q: And the kinase still bound, per cent of control (MAP3K2 (human))?
A: 80%

Q: And the kinase still bound, per cent of control (CSNK1G2 (human))?
A: 87%

Q: And the kinase still bound, per cent of control (STK17B (human))?
A: 100%

Q: What about the kinase still bound, per cent of control (RIOK2 (human)) of the same compound?
A: 94%

Q: And the kinase still bound, per cent of control (STK25 (human))?
A: 100%

Q: And the kinase still bound, per cent of control (HIPK1 (human))?
A: 100%

Q: What about the kinase still bound, per cent of control (EPHA4 (human)) of the same compound?
A: 100%

Q: And the kinase still bound, per cent of control [5]?
A: 100%

Q: And the kinase still bound, per cent of control (CaMK1 (human))?
A: 99%

Q: And the kinase still bound, per cent of control (EIF2AK2 (human))?
A: 72%

Q: And the kinase still bound, per cent of control (HCK (human))?
A: 88%

Q: What about the kinase still bound, per cent of control (MLTK (human)) of the same compound?
A: 100%

Q: And the kinase still bound, per cent of control (MYLK (human))?
A: 100%

Q: And the kinase still bound, per cent of control (RIPK1 (human))?
A: 85%

Q: And the kinase still bound, per cent of control (CAMK2D (human))?
A: 100%

Q: What about the kinase still bound, per cent of control (CLK3 (human)) of the same compound?
A: 93%

Q: And the kinase still bound, per cent of control (GSK3A (human))?
A: 100%
